Test results: patent US20090246787A1, “METHOD AND APPARATUS FOR DETERMINING CHEMOSENSITIVITY” (SYSMEX CORPORATION, priority 2008, published 2009)
Where two headings read alike, the source gives them in different places.

Key:
CDK1 [1] = details: 100 nM doxorubicin, 24 hours
BT474 cells = experiment: MTT living-cell assay, doxorubicin IC50; type: cell-based; details: Homo sapiens, BT-474, 72 h, cultured 3 days with doxorubicin, MTT method, read-out: IC50 class (chemosensitivity estimated by IC50)
Method: BT-474 cells were cultured in 5 vol % CO2 at 37° C., in a Dulbecco's modified medium containing 10% by mass of fetal bovine serum.
(§1) Each of the breast cancer cell lines, that is, HS 578T cells, MDA-MB-435S cells, BT20 cells, CAMA-1 cells, T47D cells, MDA-MB-361 cells, UACC893 cells and BT474 cells, was diluted stepwise to produce 7 serial cell dilutions.
(§2) The number of living cells in each of the cultures thus obtained was determined by an MTT method of using 3-(4,5-dimethylthiazol-2-yl)-2,5-diphenyl-2H-tetrazolium bromide. The number of living cells to be inoculated was established for each type of cell so as to enable the influence of the drug to be evaluated in the measurement range where the primary correlation between the number of cells in the serial dilution to be inoculated and the determined number of the living cells was kept high.
Thereafter, the number of living cells in each of the cultures thus obtained was measured by the MTT method of using 3-(4,5-dimethylthiazol-2-yl)-2,5-diphenyl-2H-tetrazolium bromide. This measurement was conducted 4 times.
On the basis of the determined number of living cells, the concentration of doxorubicin (IC50) at which the ratio of the number of living cells in the culture not treated with doxorubicin to the number of living cells in the culture treated with doxorubicin became 50% was determined.

HS 578T cells = experiment: MTT living-cell assay, doxorubicin IC50; type: cell-based; details: Homo sapiens, 72 h, cultured 3 days with doxorubicin, MTT method, read-out: IC50 class (chemosensitivity estimated by IC50)
Method: (§3) Human breast cancer cell lines, that is, HS 578T cells (ATCC HTB-126R), MDA-MB-435s cells (ATCC HTB-129), BT20 cells (ATCC HTB-19), CAMA-1 cells (ATCC HTB-21), T47D cells (ATCC HTB-133), MDA-MB-361 cells (ATCC HTB-27), UACC893 cells (ATCC CRL-1902) and BT474 cells (ATCC HTB-20) were purchased from American Type Culture Collection (ATCC) and cultured under culture conditions recommended by ATCC, as follow.
HS 578T cells were cultured in 5 vol % CO2 at 37° C., in a Dulbecco's modified Eagle medium containing 4 mM of L-glutamine, 10% by mass of fetal bovine serum and 0.01 mg/L of bovine insulin, with glucose at a final concentration of 4.5 g/L and sodium bicarbonate at a final concentration of 1.5/L. […]
as §2
(§4) Thereafter, the number of living cells in each of the cultures thus obtained was measured by the MTT method of using 3-(4,5-dimethylthiazol-2-yl)-2,5-diphenyl-2H-tetrazolium bromide. […]

[2] = used generally in chemotherapy; cited from earlier work
BT20 cells = experiment: MTT living-cell assay, doxorubicin IC50; type: cell-based; details: Homo sapiens, BT-20, 72 h, cultured 3 days with doxorubicin, MTT method, read-out: IC50 class (chemosensitivity estimated by IC50)
Method: as §3
BT-20 cells were cultured in 5 vol % CO2 at 37° C., in an Eagle minimum essential medium containing Earle's BSS, 2 mM of L-glutamine, 1.0 mM of sodium pyruvate, 0.1 mM of nonessential amino acids, 1.5 g/L of sodium bicarbonate and 10% by mass of fetal bovine serum. […]
as §2, §4

T47D cells = experiment: MTT living-cell assay, doxorubicin IC50; type: cell-based; details: Homo sapiens, 72 h, cultured 3 days with doxorubicin, MTT method, read-out: IC50 class (chemosensitivity estimated by IC50)
Method: as §3
T-47D cells were cultured in 5 vol % CO2 at 37° C., in an RPMI 1640 medium containing 2 mM of L-glutamine, 1.0 mM of HEPES, 1.0 mM of sodium pyruvate, 4.5 g/L of glucose, 1.5 g/L of sodium bicarbonate, 10% by mass of fetal bovine serum and 0.2 unit/mL of bovine insulin. […]
as §2, §4

MDA-MB-361 cells = experiment: MTT living-cell assay, doxorubicin IC50; type: cell-based; details: Homo sapiens, 72 h, cultured 3 days with doxorubicin, MTT method, read-out: IC50 class (chemosensitivity estimated by IC50)
CDK1 [3] = details: 100 nM doxorubicin, 24 hours; remark: listed apart in the source
CAMA-1 cells = experiment: MTT living-cell assay, doxorubicin IC50; type: cell-based; details: Homo sapiens, 72 h, cultured 3 days with doxorubicin, MTT method, read-out: IC50 class (chemosensitivity estimated by IC50)
Method: CAMA-1 cells were cultured in 5 vol % CO2 at 37° C., in an Eagle minimum essential medium containing Earle's BSS, 2 mM of L-glutamine, 1.0 mM of sodium pyruvate, 0.1 mM of nonessential amino acids, 1.5 g/L of sodium bicarbonate and 10% by mass of fetal bovine serum.
as §1, §2
Thereafter, the number of living cells in each of the cultures thus obtained was measured by the MTT method of using 3-(4,5-dimethylthiazol-2-yl)-2,5-diphenyl-2H-tetrazolium bromide. This measurement was conducted 4 times. […]

MDA-MB-435S cells = experiment: MTT living-cell assay, doxorubicin IC50; type: cell-based; details: Homo sapiens, 72 h, cultured 3 days with doxorubicin, MTT method, read-out: IC50 class (chemosensitivity estimated by IC50)
UACC893 cells = experiment: MTT living-cell assay, doxorubicin IC50; type: cell-based; details: Homo sapiens, UACC-893, 72 h, cultured 3 days with doxorubicin, MTT method, read-out: IC50 class (chemosensitivity estimated by IC50)

## COc1cccc2c1C(=O)c1c(O)c3c(c(O)c1C2=O)C[C@@](O)(C(=O)CO)C[C@@H]3O[C@H]1C[C@H](N)[C@H](O)[C@H](C)O1 [doxorubicin]
CDK1 [1]; BT20 cells
  difference of CDK1 specific activity (not treated − treated with doxorubicin): high
  ratio of CDK1 specific activity (treated with doxorubicin / not treated): low
CDK1 [1]; BT474 cells
  difference of CDK1 specific activity (not treated − treated with doxorubicin): a little difference, or a minus difference
  ratio of CDK1 specific activity (treated with doxorubicin / not treated): high
CDK1 [1]; CAMA-1 cells
  difference of CDK1 specific activity (not treated − treated with doxorubicin): high
  ratio of CDK1 specific activity (treated with doxorubicin / not treated): low
CDK1 [1]; HS 578T cells
  difference of CDK1 specific activity (not treated − treated with doxorubicin): high
  ratio of CDK1 specific activity (treated with doxorubicin / not treated): low
CDK1 [1]; MDA-MB-361 cells
  difference of CDK1 specific activity (not treated − treated with doxorubicin): a little difference, or a minus difference
  ratio of CDK1 specific activity (treated with doxorubicin / not treated): high
CDK1 [1]; MDA-MB-435S cells
  difference of CDK1 specific activity (not treated − treated with doxorubicin): high
  ratio of CDK1 specific activity (treated with doxorubicin / not treated): low
CDK1 [1]; T47D cells
  difference of CDK1 specific activity (not treated − treated with doxorubicin): a little difference, or a minus difference
  ratio of CDK1 specific activity (treated with doxorubicin / not treated): high
CDK1 [1]; UACC893 cells
  difference of CDK1 specific activity (not treated − treated with doxorubicin): a little difference, or a minus difference
  ratio of CDK1 specific activity (treated with doxorubicin / not treated): high
BT474 cells
  IC50: > 0.2 µM
HS 578T cells
  IC50: < 0.2 µM
[2]
  effective blood concentration: about 200 nM
BT20 cells
  IC50: < 0.2 µM
T47D cells
  IC50: > 0.2 µM
MDA-MB-361 cells
  IC50: > 0.2 µM
CDK1 [3]; BT20 cells
  difference of CDK1 activity level (not treated − treated with doxorubicin): great difference
  ratio of CDK1 activity level (treated with doxorubicin / not treated): low
CDK1 [3]; BT474 cells
  difference of CDK1 activity level (not treated − treated with doxorubicin): a little difference, or a minus difference
  ratio of CDK1 activity level (treated with doxorubicin / not treated): high
CDK1 [3]; CAMA-1 cells
  difference of CDK1 activity level (not treated − treated with doxorubicin): great difference
  ratio of CDK1 activity level (treated with doxorubicin / not treated): low
CDK1 [3]; HS 578T cells
  difference of CDK1 activity level (not treated − treated with doxorubicin): great difference
  ratio of CDK1 activity level (treated with doxorubicin / not treated): low
CDK1 [3]; MDA-MB-361 cells
  difference of CDK1 activity level (not treated − treated with doxorubicin): a little difference, or a minus difference
  ratio of CDK1 activity level (treated with doxorubicin / not treated): high
CDK1 [3]; MDA-MB-435S cells
  difference of CDK1 activity level (not treated − treated with doxorubicin): great difference
  ratio of CDK1 activity level (treated with doxorubicin / not treated): low
CDK1 [3]; T47D cells
  difference of CDK1 activity level (not treated − treated with doxorubicin): a little difference, or a minus difference
  ratio of CDK1 activity level (treated with doxorubicin / not treated): high
CDK1 [3]; UACC893 cells
  difference of CDK1 activity level (not treated − treated with doxorubicin): a little difference, or a minus difference
  ratio of CDK1 activity level (treated with doxorubicin / not treated): high
CAMA-1 cells
  IC50: < 0.2 µM
MDA-MB-435S cells
  IC50: < 0.2 µM
UACC893 cells
  IC50: > 0.2 µM
